Laboratory results from patent US10526295B2, “Nuclear transport modulators and uses thereof” (Karyopharm Therapeutics Inc., priority 2015, dated 2020).

Key:
Type in all cases: cell-based
MM1S cells = assay: MTT cell proliferation assay (MM1S); settings: Homo sapiens, MM1.S; MM1S multiple myeloma cells; approximately 64-72 hours incubation; 1 nM to 30 μM
Procedure: (§1) The MTT cell proliferation assay was used to study the cytotoxic properties of the compounds. The assay was performed according to the method described by Roche Molecular Biochemicals, with minor modifications. The assay is based on the cleavage of the tetrazolium salt, MTT, in the presence of an electron-coupling reagent. The water-insoluble formazan salt produced must be solubilized in an additional step. Cells grown in a 96-well tissue culture plate were incubated with the MTT solution for approximately 4 hours. After this incubation period, a water-insoluble formazan dye formed. After solubilization, the formazan dye was quantitated using a scanning multi-well spectrophotometer (ELISA reader). […] The cells were seeded at 5,000-10,000 cells in each well of 96-well plate in 100 μL of fresh culture medium and were allowed to attach overnight. The stock solutions of the compounds were diluted in 100 μL cell culture medium to obtain eight concentrations of each test compound, ranging from 1 nM to 30 μM. […] All optical densities were measured at 490 nm using a Vmax Kinetic Microplate Reader (Molecular Devices). In most cases, the assay was performed in duplicate and the results were presented as a mean percent inhibition to the negative control±SE. The following formula was used to calculate the percent of inhibition: Inhibition (%)=(1−(ODo/OD))×100.
(§2) The compounds were tested against Z138, MM1S and 3T3 cells. The Z138 cell line is a mature B-cell acute lymphoblastic leukemia cell line derived from a patient with chronic lumphocytic leukemia. The MM1S cell line was established from the peripheral blood of a human multiple myeloma patient. 3T3 cells are standard fibroblast cells; they were originally isolated from Swiss mouse embryo tissue.

3T3 cells = assay: MTT cell proliferation assay (3T3); settings: Mus musculus, NIH3T3; 3T3 fibroblast cells; approximately 64-72 hours incubation; 1 nM to 30 μM
Procedure: as §1, §2

Z138 cells = assay: MTT cell proliferation assay (Z138); settings: Homo sapiens, Z-138, approximately 64-72 hours incubation, 1 nM to 30 μM
Procedure: as §1, §2

| SMILES | IC50 (MM1S cells) [µM] | IC50 (3T3 cells) [µM] | IC50 (Z138 cells) [µM] |
| --- | --- | --- | --- |
| NC(=O)/C(=C/n1cnc(-c2cc(C(F)(F)F)cc(C(F)(F)F)c2)n1)c1cccc(S(=O)(=O)N2CCC(F)(F)CC2)c1 [Compound 122, (E)-3-(3-(3,5-bis(trifluoromethyl)phenyl)-1H-1,2,4-triazol-1-yl)-2-(3-(4,4-difluoropiperidin-1-ylsulfonyl)phenyl)acrylamide] | 0.1 to 5 | > 30 | 0.1 to 5 |
| NC(=O)/C(=C/n1cnc(-c2cc(C(F)(F)F)cc(C(F)(F)F)c2)n1)c1cccc(S(=O)(=O)N2CC(F)C2)c1 [Compound 123, (E)-3-(3-(3,5-bis(trifluoromethyl)phenyl)-1H-1,2,4-triazol-1-yl)-2-(3-(3-fluoroazetidin-1-ylsulfonyl)phenyl)acrylamide] | 0.1 to 5 | > 30 | 0.1 to 5 |
| CN1CCN(S(=O)(=O)c2cccc(/C(=C\n3cnc(-c4cc(C(F)(F)F)cc(C(F)(F)F)c4)n3)C(N)=O)c2)CC1 [Compound 124, (E)-3-(3-(3,5-bis(trifluoromethyl)phenyl)-1H-1,2,4-triazol-1-yl)-2-(3-(4-methylpiperazin-1-ylsulfonyl)phenyl)acrylamide] | 0.1 to 5 | > 30 | 0.1 to 5 |
| NC(=O)/C(=C/n1cnc(-c2cc(C(F)(F)F)cc(C(F)(F)F)c2)n1)c1cccc(S(=O)(=O)N2CCCC2)c1 [Compound 125, (E)-3-(3-(3,5-bis(trifluoromethyl)phenyl)-1H-1,2,4-triazol-1-yl)-2-(3-(pyrrolidin-1-ylsulfonyl)phenyl)acrylamide] | 0.1 to 5 | > 30 | 0.1 to 5 |
| NC(=O)/C(=C/n1cnc(-c2cc(C(F)(F)F)cc(C(F)(F)F)c2)n1)c1cccc(S(=O)(=O)N2CCC(C(F)(F)F)CC2)c1 [Compound 126, (E)-3-(3-(3,5-bis(trifluoromethyl)phenyl)-1H-1,2,4-triazol-1-yl)-2-(3-(4-(trifluoromethyl)piperidin-1-ylsulfonyl)phenyl)acrylamide] | 5 to 30 | > 30 | 0.1 to 5 |
| NC(=O)/C(=C/n1cnc(-c2cc(C(F)(F)F)cc(C(F)(F)F)c2)n1)c1cccc(S(=O)(=O)N2CCC2)c1 [Compound 127, (E)-2-(3-(azetidin-1-ylsulfonyl)phenyl)-3-(3-(3,5-bis(trifluoromethyl)phenyl)-1H-1,2,4-triazol-1-yl)acrylamide] | 0.1 to 5 | 0.1 to 5 | 0.1 to 5 |
| NC(=O)/C(=C/n1cnc(-c2cc(C(F)(F)F)cc(C(F)(F)F)c2)n1)c1cccc(S(=O)(=O)N2CCC(F)(F)C2)c1 [Compound 128, (E)-3-(3-(3,5-bis(trifluoromethyl)phenyl)-1H-1,2,4-triazol-1-yl)-2-(3-(3,3-difluoropyrrolidin-1-ylsulfonyl)phenyl)acrylamide] | > 30 | 0.1 to 5 | 0.1 to 5 |
